Experimental data published in patent publication US20050136108A1, “Stepwise delivery of topiramate over prolonged period of time” (priority 2003, published 2005).
Converted amounts (≈) assume the structure as drawn.

Experiments:
[1] = Aqueous solubility of topiramate; type: physicochemical; details: water, 37 °C, thermodynamic from solid, range stated without source
Protocol: Aqueous solubility is determined by adding the therapeutic agent to stirred or agitated water maintained in a constant temperature bath at a temperature of 37 degrees centigrade until no more agent dissolves. The resulting solution saturated with active agent is then filtered, typically under pressure through a 0.8-micron Millipore filter, and the concentration in solution is measured by any appropriate analytical method including gravimetric, ultraviolet spectrophometry, chromatography, and the like.

[2] = Intrinsic dissolution rate in water; type: physicochemical; details: water at 37° C.
Text: Intrinsic dissolution is a method that utilizes a compressed disc of known area (a constant surface), effectively eliminating surface area and surface electrical charges as dissolution variables. The dissolution rate obtained by this method is termed the intrinsic dissolution rate and is characteristic of each solid compound in a given solvent under the fixed experimental conditions. The value is generally expressed as mg dissolved per minute per centimeters squared and is useful in predicting probable absorption problems due to dissolution rate. […] See USP General Chapter <1087> for more information.

[3] = cited from earlier work
[4] = in vivo; cited from earlier work

solubility [1]: 9.8 to 13 mg/mL (≈ 28.9 to 38.3 mM) | dissolution rate in water [2]: below 0.6 mg/min/cm2
SMILES: CC1(C)O[C@@H]2[C@@H](CO[C@@]3(COS(N)(=O)=O)OC(C)(C)O[C@@H]23)O1 [Topiramate, topiramate]
solubility in alkaline solutions containing sodium hydroxide or sodium phosphate ([3]; alkaline solutions): soluble | solubility in acetone, dimethylsulfoxide and ethanol ([3]; organic solvents): soluble | solubility of topiramate in water ([3]; water): about 9.8 mg/ml | excretion [4]: excreted largely through the urine | metabolism [4]: not extensively metabolized | pharmacokinetics (dose dependence of blood plasma concentration) [4]: linear
